Test results as given in article PMC8868346, “Novel Series of Dual NRF2 Inducers and Selective MAO-B Inhibitors for the Treatment of Parkinson’s Disease” (Antioxidants, 2022).
Read-outs that look alike come from different tables or passages of the source.

Legend:
SH-SY5Y cells [1] = assay: Neuroprotection in SH-SY5Y against rotenone/oligomycin A (MTT); format: cell-based, human; settings: compound 0.1 µM, 24 h pre- and 24 h co-incubation
Procedure: (§1) Cells were seeded at a density of 60,000 cells/well in 96-well transparent plates for 24 h. Then cells were pre-incubated with the corresponding compound at 0.1 μM. After 24 h, the medium was removed and replaced with 1% (v/v) FBS media containing the corresponding compound at 0.1 µM and the selected toxic stimuli, namely a mixture of rotenone and oligomycin A (R/O; 30/10 μM, respectively; Sigma–Aldrich, Spain) or 6-hydroxydopamine (100 µM; Sigma–Aldrich, Spain). […].

[2] = Blood–brain barrier permeation assay (PAMPA); settings: BBB permeability class from Pe
[3] = test system: blood-brain barrier (passive diffusion); assay: Blood–brain barrier permeation assay (PAMPA); settings: PAMPA, pH 7.4
MAO-A = settings: read-out: IC50 for MAO-A; cited from earlier work
MAO-B [4] = settings: read-out: IC50 for MAO-B; cited from earlier work
SH-SY5Y cells [5] = assay: Neuroprotection in SH-SY5Y against 6-hydroxydopamine (MTT); format: cell-based, human; settings: 6-OHDA 100 µM; compound 0.1 µM, 24 h pre- and 24 h co-incubation
Procedure: as §1

MAO-B [6] = target: T1, MAO-B (Homo sapiens, UniProt P27338); assay: MAO-B reversibility assay (pre-incubation times); format: biochemical; settings: 0, 15, 30 min pre-incubation at […] IC50
T1 construct: purchased Sigma–Aldrich
T1 sequence (P27338 1-520): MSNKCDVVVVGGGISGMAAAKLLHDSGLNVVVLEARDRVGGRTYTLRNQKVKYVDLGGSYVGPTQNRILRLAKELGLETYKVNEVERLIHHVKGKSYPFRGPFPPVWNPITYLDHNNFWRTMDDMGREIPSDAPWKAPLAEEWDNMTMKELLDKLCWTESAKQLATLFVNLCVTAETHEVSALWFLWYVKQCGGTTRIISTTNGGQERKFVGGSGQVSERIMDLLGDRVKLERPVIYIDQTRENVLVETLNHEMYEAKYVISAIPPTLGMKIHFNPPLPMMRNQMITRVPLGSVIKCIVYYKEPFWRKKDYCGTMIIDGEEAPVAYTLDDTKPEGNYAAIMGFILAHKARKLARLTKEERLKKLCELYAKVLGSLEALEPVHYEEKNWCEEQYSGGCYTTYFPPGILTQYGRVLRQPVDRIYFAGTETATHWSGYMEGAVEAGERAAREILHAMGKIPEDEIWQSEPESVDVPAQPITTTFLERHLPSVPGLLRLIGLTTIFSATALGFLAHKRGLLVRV

AREc32 = test system: AREc32
Procedure: AREc32 cells, shared by CR Wolf, were grown in Dulbecco’s modified Eagle medium (DMEM) with GlutaMAX (Gibco, Invitrogen, Madrid, Spain), supplemented with 10% (v/v) filtrated fetal bovine serum (FBS; Gibco, Invitrogen, Madrid, Spain), 1% of antibiotics penicillin-streptomycin, and geneticin (0.8 mg/mL G418; Gibco, Invitrogen, Madrid, Spain). […] They were recovered by centrifugation at 800 rpm for 10 min. Cells were used from the third to twelfth passage.
(§2) Basal absorbance was set to 100% and results were normalized to basal conditions.
(§3) Cytotoxicity. LD50 values in several cell cultures employed
(§4) Table S2. Cytotoxicity elicited by 10-18 compounds in SH-SY5Y, AREc32 and mixed pr imary glial cultures. Viability was measured as MTT reduction in presence of increasing concentrations of der ivatives. LD50 values were calcula ted from dose-response curves. Data are expr essed as mean ± SEM of at least 3 independent experiments.
(§5) 1.3. PAMPA control compounds (BBB permeability)
(§6) Table S3. Pr ediction of the BBB passive permeability of control compounds

[7] = Oxygen radical absorbance capacity (ORAC) assay; settings: Trolox equivalents, AAPH, fluorescein
Procedure: The ORAC test was performed to evaluate the oxygen free radical scavenger capacity of the compounds. […] Compounds at desired concentrations (0.03, 0.1, 0.3, 1, 3, and 10 µM) were diluted in phosphate-buffered saline (PBS; 10 mM, pH 7.4) at 37 °C and placed in a 96 black flat bottom well plate. […] A fluorescence measurement was done first to determine the basal signal. Then, 25 µL of 2, 2′-azobis-amidinopropane dihydrochloride (AAPH) (12 mM final concentration) was quickly added. All samples were measured in duplicates in three different experiments. […] Results were expressed in terms of Trolox equivalents (T.eq.), obtained by plotting net AUC versus compound concentration, then performing linear regression and normalizing slopes of the compounds considering Trolox as reference.

MAO-B [8] = settings: cited from earlier work
IL-1β = IL-1β levels by ELISA in LPS stimulated primary mixed glial cultures; format: cell-based, rat; settings: compound 10 μM; LPS 1 µg/mL 18 h
Procedure: Cells were cultured for 7–10 days before treatment.
Primary glial cells were pre-treated with compounds at the desired concentration for 24 h. Then, treatments were removed and glial cells were incubated with lipopolysaccharide (LPS, 1 μg/mL; Sigma–Aldrich, Spain) in the presence of each compound at the desired concentration for 18 h. Nitrite production was then assessed by modified Griess assay. Briefly, 150 µL of each sample was mixed with 75 µL of 4,4′-diamino-diphenylsulfone (Dapsone) and 75 µL of N-(1-naphthyl)ethylenediamine (Neda). The mixture was incubated at room temperature for 5 min. […] Data were normalized to basal conditions, setting this value as 100% of nitrite production. EC50 values were calculated from dose–response curves obtained from representing percentage of nitrites reduction vs. compound concentration.
Supernatants obtained from mixed primary glial cell cultures were used to determine IL-1β levels by quantitative ELISA kits (Preprotech, R&D Systems-bioNova, Madrid, Spain) following the manufacturer’s instructions. Commercial solution of IL-1β was used to generate a standard curve for sample quantification. Absorbance was measured in a microplate reader SPECTROstar Nano (BMG Labtech) at 405 with 650 nm correction.

rat striatal slices = assay: Rat striatal slices exposed to rotenone: ROS production; format: cell-based; settings: compound 10 µM, rotenone 10 µM, 4 h
Procedure: Three- to four-month-old Sprague–Dawley rats were decapitated, the brain was removed, and the two brain hemispheres were separated. Each hemisphere was then cut into 300-µm coronal slices using a McIlwain Tissue Chopper (Cavey Laboratory Engineering, Surrey, UK) and separated in a previously oxygenated (95% O2 and 5% CO2) ice-cold Krebs’s dissection buffer (120 mM of NaCl; 2 mM of KCl; 26 mM of NaHCO3; 1.18 mM of KH2PO4; 10 mM of MgSO4; 0.5 mM of CaCl2; 11 mM of glucose; and 200 mM sucrose at pH 7.4) using a Leica SE6 microscope (Leica, Madrid, Spain). Striatum-containing slices were selected and immediately incubated for stabilization in dissection buffer without sucrose, bubbled with 95% O2 and 5% CO2 for 45 min at 34 °C, allowing slices to recover from slicing injury. […] Finally, cell death and the ROS production were measured.
ROS quantification was performed using the fluorescent probe 2,7′-dichlorodihydrofluorescein diacetate (H2DCFDA, λEx/Em = 495/529 nm; Thermo Fisher, Madrid, Spain). Cell death quantification was performed using the fluorescent probe propidium iodide (PI, λEx/Em = 535/617 nm; Thermo Fisher, Madrid, Spain). […] Fluorescence from striatum slices was then recorded for H2DCFDA (λEx/Em = 495/529 nm), PI (λEx/Em = 535/617 nm), and Hoechst (λEx/Em = 350/461 nm), in an inverted Nikon Eclipse T2000-U microscope (Nikon, Tokyo, Japan). […]

NRF2 = NRF2 induction, luciferase activity in AREc32 reporter cells; format: cell-based, human; settings: Homo sapiens; AREc32 cells, 24 h; concentration required to double luciferase activity compared to basal; read-out: CD (µM) NRF2 Induction
Procedure: Cells were used from the third to twelfth passage.
AREc32 cells were stably transfected with the plasmid pGL-8xARE that implements 8 copies of the antioxidant response element (ARE) sequences followed by luciferase reporter gen. Therefore, NRF2 induction can be related to the activation of ARE sequences by measuring luciferase activity in terms of luminescence production. For NRF2 induction experiments, cells were plated in 96 white flat bottom well plates (20,000 cells/well). After 24 h, cells were incubated with selected compounds at the desired concentrations in duplicates for 24 h. The Luciferase Assay System (Promega E1500) was used according to provider protocol and luminescence was quantified in an Orion II microplate luminometer (Berthold, Germany). Fold induction of luciferase activity was normalized to basal conditions. Data were expressed as CD values, which means the concentration needed to duplicate the luciferase activity compared to basal conditions. CD values were calculated from dose–response curves fitted by non-linear regression for each compound after logarithmic transformation of the data using GraphPad Prism 8.0 software.

SH-SY5Y = settings: human
Procedure: They were recovered by centrifugation at 800 rpm for 10 min. Cells from the third to twelfth passage were seeded at a density of 80,000 cells/well in 96-well plates for the neuroprotection studies.
as §2, §3, §4, §5, §6

[9] = test system: Mixed primary glial cultures; assay: Cytotoxicity in mixed primary glial cultures (MTT); settings: Sprague-Dawley, rat
Procedure: Mixed primary glial cultures were obtained from cerebral cortex of 2–5-day-old Sprague–Dawley rats. Blood vessels and meninges were first removed in Hank’s balanced salt solution (HBSS) and then forebrains were dissociated in DMEM/F12 medium. After mechanical dissociation, filtering, and centrifugation at 800 rpm for 10 min, cells were plated at a density of 30,000 cells/well in DMEM/F12 medium with 20% (v/v) FBS and 1% penicillin/streptomycin (10,000 units). […] After 5 days, medium was substituted by DMEM/F12 medium with 10% (v/v) FBS. Cells were cultured for 7–10 days before treatment.
as §2, §3, §4, §5, §6

[10] = test system: nitrite production in mixed primary glial cultures; settings: read-out: EC50 Nitrite Reduction; positive control; cited from earlier work

Structure (SMILES): C#CCN[C@@H]1CCc2ccccc21 [Rasagiline, reference compound]
- R/O (30/10 µM) Protection (%) (SH-SY5Y cells [1]): 28.9%
- PAMPA Prediction [2]: CNS + (CNS + (high BBB permeability): Pe (10^−6 cm s^−1) > 4.0)
- Papp at 4 h, 100 µM [3]: 23.5 ± 4.2 ×10⁻⁶ cm/s
- 6-OHDA Protection (%) (SH-SY5Y cells [5]): 77.0%
- MAO-B inhibition reversibility (MAO-B [6]): Irreversible
- LD50 (µM) AREc32 (AREc32; MTT reduction): > 30 µM
- ORAC (T. eq.) [7]: 0.04 ± 0.02 T. eq.
- ORAC (T. eq.) ([7]; listed as rasagiline): no effect

Structure (SMILES): C(=CCc1ccccc1)Cc1ccccc1 [1,4-diphenyl-2-butene]
- Ki (MAO-B [8]): 35 µM

Structure (SMILES): COc1ccc2[nH]cc(CCNC(C)=O)c2c1 [Melatonin, reference compound]
- IL-1β Levels % Reduction (10 μM) (IL-1β): 31.6 ± 7.00%
- R/O (30/10 µM) Protection (%) (SH-SY5Y cells [1]): 22.3%
- ROS levels (H2DCFDA), rotenone model (rat striatal slices): reduced
- EC50 (NRF2): > 30 µM
- 6-OHDA Protection (%) (SH-SY5Y cells [5]): 88.8%
- LD50 (µM) SH-SY5Y (SH-SY5Y): > 100 µM
- LD50 (µM) AREc32 (AREc32; human): > 30 µM
- LD50 (µM) Mixed primary glial cultures [9]: > 30 µM

Structure (SMILES): C[S+]([O-])CCCCN=C=S (centres unmarked) [Sulforaphane]
- EC50 [10]: 1.4 ± 0.3 µM
